Data: DBAASP
Converted amounts (≈) assume the structure as drawn. Each block holds one molecule with its values, some of them ahead of it.

How the values were obtained:
Test in all cases: ≥ marks a high value that may be exact or a test limit, other limits are often not marked, values filed in µg/mL are converted to µM
[1] = system: Streptococcus agalactiae
[2] = system: Shigella flexneri
[3] = system: Bacillus subtilis ATCC 6633
[4] = system: Salmonella enterica subsp. enterica serovar Typhi ATCC 6399
[5] = system: Listeria monocytogenes ATCC 7644
[6] = system: Escherichia coli ATCC 25922
[7] = system: Staphylococcus aureus ATCC 25923
[8] = system: Micrococcus luteus ATCC 4698
[9] = system: Staphylococcus aureus ATCC 29737
[10] = system: Staphylococcus aureus USA 100
[11] = system: Staphylococcus aureus USA 300
[12] = system: Candida albicans ATCC 64550
[13] = system: Staphylococcus epidermidis ATCC 12228
[14] = system: Candida albicans ATCC 90028
[15] = system: Pseudomonas aeruginosa ATCC 9027
[16] = system: Staphylococcus aureus
[17] = system: Escherichia coli W160-37

SMILES: CC[C@H](C)[C@H](NC(=O)[C@H](CC(C)C)NC(=O)[C@H](CCCCN)NC(=O)[C@H](CC(C)C)NC(=O)[C@H](C)NC(=O)CNC(=O)[C@H](CCCCN)NC(=O)[C@H](C)NC(=O)[C@H](CC(C)C)NC(=O)[C@H](C)NC(=O)CNC(=O)[C@H](Cc1c[nH]c2ccccc12)NC(=O)[C@@H](N)Cc1ccccc1)C(=O)NCC(=O)N[C@H](C(=O)NCC(=O)N[C@@H](CO)C(=O)N[C@@H](CC(C)C)C(=O)N[C@@H](Cc1ccccc1)C(=O)N[C@@H](CO)C(=O)N[C@@H](CO)C(=O)N[C@@H](Cc1ccccc1)C(=O)N[C@@H](CO)C(=O)N[C@@H](CCCCN)C(=O)N[C@@H](CCCCN)C(=O)N[C@@H](CC(=O)O)C(=O)O)C(C)C [FWGALAKGALKLIGVGSLFSSFSKKD]
MIC [1]: ≥ 37.5 µM
MIC [2]: ≥ 37.5 µM
MIC [3]: ≥ 37.5 µM
MIC [4]: ≥ 37.5 µM
MIC [5]: ≥ 37.5 µM
MIC [6]: 37.5 µM (≈ 102 µg/mL)
MIC [7]: 75 µM (≈ 205 µg/mL)

SMILES: CC[C@H](C)[C@H](N)C(=O)N[C@@H](C)C(=O)N[C@@H](CCC(N)=O)C(=O)N[C@@H](CCC(N)=O)C(=O)N[C@@H](C)C(=O)N[C@@H](C)C(=O)N[C@@H](CC(N)=O)C(=O)N[C@H](C(=O)N[C@@H](C)C(=O)N[C@@H](C)C(=O)N[C@H](C(=O)N[C@@H](C)C(=O)N[C@@H](CCCN=C(N)N)C(=O)NCC(=O)O)[C@@H](C)O)C(C)C [IAQQAANVAATARG]
MIC [8]: 8.84 µM (≈ 11.9 µg/mL)

SMILES: CC[C@H](C)[C@H](N)C(=O)N[C@@H](CCCCN)C(=O)N[C@H](C(=O)N[C@@H](CCCCN)C(=O)N[C@H](C(=O)N[C@@H](CCCCN)C(=O)N[C@H](C(=O)N[C@@H](CCCCN)C(N)=O)[C@@H](C)CC)[C@@H](C)CC)[C@@H](C)CC [IKIKIKIK]
MIC [9]: ≥ 127 µM
MIC [10]: 25 µM (≈ 24.6 µg/mL)
MIC [11]: 25 µM (≈ 24.6 µg/mL)
MIC [12]: 3.13 µM (≈ 3.07 µg/mL)
MIC [13]: 2.03 µM (≈ 2 µg/mL)
MIC [14]: 1.56 µM (≈ 1.53 µg/mL)
MIC [6]: 31.8 µM (≈ 31.3 µg/mL)
MIC [15]: 6.25 µM (≈ 6.14 µg/mL)

The remaining lines, values ahead:

MIC [12]: ≥ 100 µM
SMILES: CC(C)C[C@H](NC(=O)[C@H](CCCCN)NC(=O)[C@H](CCCCN)NC(=O)[C@H](Cc1ccccc1)NC(=O)[C@H](Cc1ccccc1)NC(=O)[C@H](CCCCN)NC(=O)[C@H](CCCCN)NC(=O)[C@H](C)NC(=O)[C@H](CCCN=C(N)N)NC(=O)[C@@H](N)CCCCN)C(=O)N[C@@H](CCCCN)C(N)=O [KRAKKFFKKLK]

MIC [8]: ≥ 75 µM
SMILES: NCCCC[C@H](NC(=O)[C@H](CO)NC(=O)[C@H](Cc1cnc[nH]1)NC(=O)[C@H](CCCN=C(N)N)NC(=O)[C@H](Cc1cnc[nH]1)NC(=O)[C@H](CO)NC(=O)[C@H](CCC(N)=O)NC(=O)[C@H](Cc1ccc(O)cc1)NC(=O)[C@@H](N)CC(N)=O)C(=O)N[C@@H](CO)C(=O)O [NYQSHRHSKS]

MIC [16]: 14 µM (≈ 20.2 µg/mL)
MIC [17]: 25 µM (≈ 36.1 µg/mL)
SMILES: CC[C@H](C)[C@H](NC(=O)[C@H](Cc1c[nH]c2ccccc12)NC(=O)[C@H](CCCCN)NC(=O)[C@H](CC(C)C)NC(=O)[C@H](Cc1ccccc1)NC(=O)[C@@H](NC(=O)[C@H](CCCCN)NC(=O)[C@H](CC(C)C)NC(=O)[C@H](CC(C)C)NC(=O)[C@H](CCCCN)NC(=O)[C@@H]1CCCN1)[C@@H](C)O)C(=O)NCC(=O)O [PKLLKTFLKWIG]
